Ten molecules from US10647680B2, “Urea compound, preparation method therefor and medical use thereof” (Ancureall Pharmaceutical (Shanghai) Co., Ltd., priority 2016, dated 2020) can be followed below.

A value given as a limit tells only on which side of the number the result lay.

Experiment [1] concerns OCI-AML3 (NPMc+ mutant type). Nature of the experiment: In vitro growth inhibition (GI50), OCI-AML3. The class given is cell-based. The following applies: Homo sapiens, OCI-AML-3; Cell lines of leukemia; read-out: GI 50 OCI- AML3 NPMc+.
Experiment [2] has as its system NCI-H1975 (EGFR L858R/T790M). Put plainly: In vitro growth inhibition (GI50), NCI-H1975. Type of experiment: cell-based. Particulars: Homo sapiens. From the text:
Tumor cell line is an effective cell model for studying the inhibition of tumor cell growth or proliferation in vitro. In the present invention, a representative tumor cell line was selected to determine the cell growth inhibition activity of the present compound. All cell lines used were from ATCC, DSMZ, and the Cell Bank of the Chinese Academy of Sciences. Cell culture conditions and methods were in accordance with the requirements of each cell line. Cells were subcultured in vitro for no more than 3 passages each time, and as required, single-clone purification and identification of cell lines could be carried out.
The cell culture media used were RPMI1640 (Gibco), MEM (Gibco), McCOY'S5A (Gibco), and IMDM (Gibco). The complete medium was prepared by supplement with 5˜20% fetal calf serum (Gibco), 1% double-antibiotics (10000 units/mL penicillin and 10000 units/mL), 2 mM glutamine or 1 mM sodium pyruvate, respectively.
Human epidermal cancer cell line A431 (EGFR WT, amplification and high expression, from Shanghai Cell Bank of Chinese Academy of Sciences and ATCC), human lung cancer cell line NCI-H292 (EGFR WT, purchased from Shanghai Cell Bank of Chinese Academy of Sciences), NSCLC cell lines PC-9 and HCC827 (EGFR exon19 E746-A750 deletion, two cell lines are sensitive to the first-generation EGFR PTK inhibitor), NSCLC cell line NCI-H1975 (EGFR L858R/T790M and the first-generation EGFR inhibitor resistance, ATCC) were cultured with 1×RPMI1640 complete medium (supplement with 10% FBS), respectively.
Adherent cells were digested with 0.25% pancreatin-EDTA (Gibco). The suspension cells were collected by centrifugation. The supernatant was discarded and the cell pellet was resuspended and counted. Different cell concentrations (5˜10×10^4 cells/mL) were prepared according to the growth cycle of each cell line and then seeded on a 96-well plate (Corning), 100 μL/well. The cells were incubated overnight at 37° C., 5% CO2. The compounds were added to the cells on the second day with 2 wells in parallel. The final concentration of organic solvent shall not exceed 1%. The cells were continually incubated for 3 to 5 days, and then subjected to MTT assay.
The compound of the present invention and the control compound were dissolved in DMSO (Sigma) respectively, with the purity of more than 98%. The compound was stored in a concentration of 10 mM at −20° C. and diluted to 2- or 10-fold series prior to use.
Dojindo CCK8 reagent kit was used as MTT assay. THERMO […] FC meter was used as microplate reader.
For adherent cells, culture medium was removed and immediately replaced with the fresh prepared medium which contains 10% CCK8 reagent (100 μL/well). For the suspension cells, CCK8 was directly added to 10% of the final concentration. The cells were continually incubated for 1˜4 h. When a dark yellow color could be observed in the solvent control wells, the absorbance value at OD450 nm was measured and the cell growth rate was calculated according to the following formula: Cell Growth Rate (%)=100*(T−T0)/(C−T0) T=optical density of drug treatment cell well—optical density of blank control well; T0=optical density of cell well before drug treatment—optical density of blank control well; C=optical density of cell well of solvent control group—optical density of blank control well. The concentration value of 50% inhibition of cell growth (GI50) was calculated according to the drug concentration and cell growth rate curve. The experiment was independently repeated 1˜3 times, and subject to biological statistical analysis. 4. Experimental Results
Tumor cell growth inhibition test was performed by selecting representative compounds (compounds 4, 11, 12, 16, 27, 68, 71, 77, 79, 89 and 116 of the present invention). The initial concentration of the compound was 5,000 nM, then it was serially diluted by 2-fold or 10-fold to 0.01 nM. The GI50 value of each test compound was calculated according to the GI50 assay and calculation method. […]

For `CC(C)(C)c1cc(NC(=O)Nc2ccc(-n3cnc4cc(O)ccc43)cc2)no1` [Compound 4, 1-(5-tert-butyl-isoxazol-3-yl)-3-[4-(5-hydroxy-benzimidazol-1-yl)-phenyl]-urea], the GI50 in experiment [1] is greater than 1000 nM; in experiment [2] it was greater than 2500 nM.

For `CC(C)(C)c1cc(NC(=O)Nc2ccc(-n3cnc4cc(OCCO)ccc43)cc2)no1` [Compound 11, 1-(5-tert-butyl-isoxazol-3-yl)-3-{4-[5-(2-hydroxy-ethoxyl)-benzimidazol-1-yl]-phenyl]-urea], the GI50 was greater than 1000 nM in experiment [1] and greater than 2500 nM in experiment [2].

With `CC(C)(C)c1cc(NC(=O)Nc2ccc(-n3cnc4cc(OCCN5CCOCC5)ccc43)cc2)no1` [Compound 16, 1-(5-tert-butyl-isoxazol-3-yl)-3-{4-[5-(2-morpholin-4-yl-ethoxyl)-benzimidazol-1-yl]-phenyl}-urea], the GI50 in experiment [1] is greater than 1000 nM; in experiment [2], greater than 2500 nM.

As for `CC(C)(C)c1cc(NC(=O)Nc2ccc(-n3cnc4ccc(OCCN5CCOCC5)cc43)cc2)no1` [Compound 27, 1-(5-tert-butyl-isoxazol-3-yl)-3-{4-[6-(2morpholin-4-yl-ethoxyl)-benzimidazol-1-yl]-phenyl}-urea], the figures for the GI50 in experiment [1] and in experiment [2] were 100 to 1000 nM and greater than 2500 nM, respectively.

As for `CC(C)(C)c1cc(NC(=O)Nc2ccc(-n3cnc4ccccc43)cc2)[nH]n1` [Compound 68, 1-(4-benzimidazol-1-yl-phenyl)-3-(5-tert-butyl-2H-pyrazol-3-yl)-urea], the GI50 in experiment [1] is greater than 1000 nM; in experiment [2], greater than 2500 nM.

Consider `COc1ccc2c(c1)ncn2-c1ccc(NC(=O)Nc2cc(C(C)(C)C)n[nH]2)cc1` [Compound 71, 1-(5-tert-butyl-2H-pyrazol-3-yl)-3-[4-(5-methoxyl-benzimidazol-1-yl)-phenyl]-urea], for which the values for the GI50 in experiment [1] and in experiment [2] were greater than 1000 nM and greater than 2500 nM, respectively.

For the molecule `COCCOc1ccc2c(c1)ncn2-c1ccc(NC(=O)Nc2cc(C(C)(C)C)n[nH]2)cc1` [Compound 77, 1-(5-tert-butyl-2H-pyrazol-3-yl)-3-{4-[5-(2-methoxyl-ethoxyl)-benzimidazol-1-yl]-phenyl}-urea], the values for the GI50 in experiment [1] and in experiment [2] were greater than 1000 nM and greater than 2500 nM, respectively.

Consider `CC(C)(C)c1cc(NC(=O)Nc2ccc(-n3cnc4cc(OCCO)ccc43)cc2)[nH]n1` [Compound 79, 1-(5-tert-butyl-2H-pyrazol-3-yl)-3-{4-[5-(2-hydroxy-ethoxyl)-benzimidazol-1-yl]-phenyl]urea], for which the results for the GI50 in experiment [1] and in experiment [2] were greater than 1000 nM and greater than 2500 nM, respectively.

As to `CC(C)(C)c1cc(NC(=O)Nc2ccc(-n3cnc4cc(OCCN5CCOCC5)ccc43)cc2)[nH]n1` [Compound 89, 1-(5-tert-butyl-2H-pyrazol-3-yl)-3-{4-[5-(2-morpholin-4-yl-ethoxyl)-benzimidazol-1-yl]-phenyl}-urea], the GI50 in experiment [1] was 100 to 1000 nM; in experiment [2], greater than 2500 nM.

As for `CC(C)(C)c1cc(N)n(C(=O)Nc2ccc(-n3cnc4ccccc43)cc2)n1` [Compound 116, 5-amino-3-tert-butyl-pyrazol-1-carboxylic acid (4-benzimidazol-1-yl-phenyl)-amide], the GI50 in experiment [1] is greater than 1000 nM; in experiment [2] it was greater than 2500 nM.
